Data from EP0183129A1, “Quinolonecarboxylic acid derivatives” (KYORIN PHARMACEUTICAL CO., LTD., priority 1984, dated 1986).
≈ marks a conversion by molar mass, not a printed value. Read-outs that look alike come from different tables or passages of the source.

Assays:
[1] = tested on: Serratia marcescens IID 618; assay: In vitro antibacterial activity, MIC (standard strain); format: cell-based; settings: Serratia marcescens, IID618
[2] = tested on: Salmonella entritidis IID 604; assay: as above; format: cell-based; settings: Salmonella, IID604
[3] = tested on: Escherichia coli NIHJ JC-2; assay: as above; format: cell-based; settings: Escherichia coli, NIHJJC2
[4] = tested on: Staphylococcus aureus 209 P; assay: as above; format: cell-based; settings: Staphylococcus aureus, 209P
E. coli ATCC 10536 = assay: as above; format: cell-based; settings: Escherichia coli, ATCC10536
S. aureus Smith [5] = assay: as above; format: cell-based, Staphylococcus aureus; settings: Staphylococcus aureus, MIC column of Table 3-1, beside ED50 against S. aureus Smith
C. difficile I-E = assay: as above; format: cell-based; settings: Clostridioides difficile
[6] = tested on: S. aureus IID 670 (Terajima); assay: as above; format: cell-based, Staphylococcus aureus; settings: Staphylococcus aureus, IID670
S. aureus Smith [7] = assay: In vivo antibacterial activity against systemic infection in mice; set-up: species or system mice (ICR-S); settings: Staphylococcus aureus, po
Experimental: (§1) Experiment-2 In vivo antibacterial activity against systemic infection in mice (ICR-S)
(§2) The infections were produced by intraperitoneal injection of a suspension of the bacterial culture corresponding to the germ studied. The products were administered orally at an hour after the infection.

S. pneumoniae S-4288 = assay: as above; set-up: species or system mice (ICR-S); settings: Streptococcus pneumoniae, S4288, po, read-out: ED50 S. pneumoniae S-4288
Experimental: as §1, §2

E. coli ML4707 = assay: as above; set-up: species or system mice (ICR-S); settings: Escherichia coli, ML4707, po, read-out: ED50 E. coli ML4707
Experimental: as §1, §2

[8] = tested on: Fusobacterium varium KYA 8501; assay: In vitro antibacterial activity, MIC (standard strain); format: cell-based; settings: Fusobacterium varium, KYA8501
[9] = tested on: Bacillus subtilis PCI 219; assay: as above; format: cell-based; settings: Bacillus subtilis, PCI219
[10] = tested on: Proteus vulgaris IFO 3167; assay: as above; format: cell-based; settings: Proteus vulgaris, IFO3167
K. pneumoniae 1-220S = assay: as above; format: cell-based; settings: Klebsiella pneumoniae, 1220S
[11] = tested on: Citrobacter freundii IID 976; assay: as above; format: cell-based; settings: Citrobacter freundii, IID976
[12] = tested on: Klebsiella pneumoniae KY(GN)6445; assay: as above; format: cell-based; settings: Klebsiella pneumoniae
[13] = tested on: Morganella morganii IID 602; assay: as above; format: cell-based; settings: IID602; Morganella morganii IID 602; 10^6 cells/ml; standard strain; read-out: MIC
E. coli ML 4707 = assay: as above; format: cell-based; settings: Escherichia coli, ML4707
S. epidermidis IID 866 = assay: as above; format: cell-based; settings: Staphylococcus epidermidis, IID866
P. mirabilis IID 994 = assay: as above; format: cell-based; settings: Proteus mirabilis, IID994
[14] = tested on: Yersinia enterocolitica IID 981; assay: as above; format: cell-based; settings: Yersinia enterocolitica, IID981
Shigella sonnei IID 969 = assay: as above; format: cell-based; settings: IID969, 10^6 cells/ml
Experimental: Experiment-1 In vitro antibacterial activity
The in vitro antibacterial activity against gram-positive and gram-negative bacteria has been investivated.
The minimum inhibitory concentration (MIC) was determined in accordance with the method recommended by Japan Society of Chemotherapy.

What does the source list for `O=C(O)c1cn(C2CC2)c2cc(N3CCNCC3)c(F)cc2c1=O` [CFLX, Ciprofloxacin, reference compound]?
MIC [1]: 0.05 µg/mL (≈ 0.151 µM); MIC [2]: 0.05 µg/mL (≈ 0.151 µM); MIC [3]: 0.0125 µg/mL (≈ 0.0377 µM); MIC [4]: 0.2 µg/mL (≈ 0.604 µM); MIC (E. coli ATCC 10536): 0.025 µg/mL (≈ 0.0754 µM); MIC (S. aureus Smith [5]): 0.2 µg/mL (≈ 0.604 µM); MIC (C. difficile I-E): 12.5 µg/mL (≈ 37.7 µM); MIC [6]: 0.2 µg/mL (≈ 0.604 µM); ED50 (S. aureus Smith [7]; read-out: ED50 S. aureus Smith, mice (ICR-S), an hour after intraperitoneal infection, challenge dose 6.0 x 10^5 cfu/mouse): > 25 mg/kg; ED50 (S. aureus Smith [7]; read-out: ED50 against S. aureus Smith, mice (ICR-S), an hour after intraperitoneal infection, challenge dose 5.5 x 10^5 cfu/mouse, n=5): 25.5 mg/kg; ED50 (S. aureus Smith [7]; read-out: ED50 against S. aureus Smith, mice (ICR-S), an hour after intraperitoneal infection, challenge dose 7 x 10^5 cfu/mouse, n=5): 12.3 mg/kg; ED50 (S. pneumoniae S-4288): > 100 mg/kg; ED50 (E. coli ML4707): 1.8 mg/kg; MIC [8]: 12.5 µg/mL (≈ 37.7 µM); MIC [9]: 0.05 µg/mL (≈ 0.151 µM); MIC [10]: 0.0125 µg/mL (≈ 0.0377 µM); MIC (K. pneumoniae 1-220S): 0.05 µg/mL (≈ 0.151 µM); MIC [11]: 0.025 µg/mL (≈ 0.0754 µM); MIC [12]: 0.025 µg/mL (≈ 0.0754 µM); MIC [13]: 0.05 µg/mL (≈ 0.151 µM); MIC (E. coli ML 4707): 0.0125 µg/mL (≈ 0.0377 µM); MIC (S. epidermidis IID 866): 0.2 µg/mL (≈ 0.604 µM); MIC (P. mirabilis IID 994): 0.025 µg/mL (≈ 0.0754 µM); MIC [14]: 0.05 µg/mL (≈ 0.151 µM); MIC (Shigella sonnei IID 969): 0.0125 µg/mL (≈ 0.0377 µM)
